Values of other authors as cited in US10709666B2, “Carrier particles for dry powder formulations for inhalation” (CHIESI FARMACEUTICI S.P.A., priority 2017, dated 2020).

Conditions: room temperature

Row | SMILES | saturated concentration in water
1 | O.OC[C@H]1O[C@@H](O[C@H]2[C@H](O)[C@@H](O)[C@@H](O)O[C@@H]2CO)[C@H](O)[C@@H](O)[C@H]1O [alpha-lactose monohydrate] | 18-19 % w/v
2 | OC[C@@H](O)[C@@H](O)[C@H](O)[C@H](O)CO [mannitol] | 18-21 % w/v
